Here are results for 47 compounds from patent publication US11780845B2 (Relay Therapeutics, Inc., priority 2019, dated 2023).

Molecules are shown by their SMILES. Some results are limits rather than exact numbers.

One experiment concerns the target FGFR2 (Homo sapiens (Human), UniProt P21802). Put plainly: FGFR2 Biochemical Caliper Assay. As to the method:
Compounds of the present invention were also tested in a FGFR2 Biochemical Caliper Assay. Compounds were prepared in 10 mM DMSO solution and serially diluted into 11 concentrations by 3-fold dilution. […] 5 uL of ATP solution (100 uM) was added to start the reaction and the plate was incubated for 90 minutes, then 70 uL of stopping buffer (0.5M EDTA) was added to terminate the reaction. Each well was analyzed using EZ reader.

A further experiment has as its system SNU16 cells. Put plainly: SNU16 Cancer Cell Line Proliferation Assay. To be noted: Homo sapiens; SNU-16 cells. It counts as cell-based. As to the method:
Compounds of the present invention were also tested in a SNU16 Cancer Cell Line Proliferation Assay, Test compounds were prepared in a 10 mM DMSO stock solution. 45 uL of stock solution was transferred to a 384 well plate, and a 3-fold 11-point dolution was performed. SNU16 cells in a 384 well cell culture plate were seeded and incubated at 37 degrees for 24 hours. 40 nL of each concentration of compound was transferred from the compound plate to a corresponding well in the cell culture plate by Echo550 liquid handler. The plates were incubated for 96 hours, then equilibrated to room temperature for 15 minutes. 20 uL of CellTiter Glo reagent is added into each well, then the plate was shaken gently for 30 minutes at room temperature. Chemiluminescence was then read on an EnVision reader.

FGFR2, sequence (P21802 22-821): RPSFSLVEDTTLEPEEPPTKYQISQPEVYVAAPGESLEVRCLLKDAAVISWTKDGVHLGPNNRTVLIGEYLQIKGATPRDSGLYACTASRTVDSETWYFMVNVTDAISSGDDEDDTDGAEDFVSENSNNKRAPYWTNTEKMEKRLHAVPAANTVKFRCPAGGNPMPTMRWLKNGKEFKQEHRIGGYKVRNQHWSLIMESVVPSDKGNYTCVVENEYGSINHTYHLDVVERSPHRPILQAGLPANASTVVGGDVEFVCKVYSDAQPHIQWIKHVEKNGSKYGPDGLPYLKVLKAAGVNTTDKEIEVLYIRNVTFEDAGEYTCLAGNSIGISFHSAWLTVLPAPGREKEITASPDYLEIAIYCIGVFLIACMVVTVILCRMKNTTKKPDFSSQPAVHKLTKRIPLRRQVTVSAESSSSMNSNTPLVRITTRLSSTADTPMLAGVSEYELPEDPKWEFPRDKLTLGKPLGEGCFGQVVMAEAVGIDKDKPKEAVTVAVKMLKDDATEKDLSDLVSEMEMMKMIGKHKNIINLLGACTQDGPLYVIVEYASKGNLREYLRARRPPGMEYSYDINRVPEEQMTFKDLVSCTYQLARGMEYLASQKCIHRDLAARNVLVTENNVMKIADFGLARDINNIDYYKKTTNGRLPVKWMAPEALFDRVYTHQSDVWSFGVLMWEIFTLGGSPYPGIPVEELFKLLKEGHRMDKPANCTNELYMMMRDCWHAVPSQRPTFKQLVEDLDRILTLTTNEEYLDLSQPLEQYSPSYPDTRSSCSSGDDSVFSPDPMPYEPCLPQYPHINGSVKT

Consider `C=CC(=O)N1CCC(c2c(-c3ccc(OC4CCCC4)cc3)c3c(N)ncnc3n2C)C1` (stereo not shown) [Example 716], for which the IC50 against FGFR2 was less than 100 nM; with SNU16 cells it was not above 100 nM.

Take `C=CC(=O)N1CCC(n2cc(-c3c(-c4ccc(Oc5ccccc5)cc4)c4c(N)ncnc4n3C)cn2)CC1` [Example 602]: the IC50 is less than 100 nM on FGFR2 and not above 100 nM in the experiment with SNU16 cells.

`Cc1cccc(Oc2ccc(-c3c(-c4ccc(NC#N)cc4)n(C)c4ncnc(N)c34)cc2)n1` [Example 476]: the concentration for half-maximal inhibition (IC50) against FGFR2 is less than 100 nM; in the experiment on SNU16 cells, not above 100 nM.

In the case of `C=CC(=O)Nc1ccc(-c2c(C3CCC(C(=O)NC)CC3)c3c(N)ncnc3n2C)cc1` (stereo not shown) [Example 302], the IC50 lay in the range of 1000 to 100000 nM on FGFR2 and 250 to 1000 nM in the experiment on SNU16 cells.

In the case of `C/C=C/C(=O)N1CCC(c2c(-c3ccc(Oc4cccc(C)n4)cc3)c3c(N)ncnc3n2C)C1` (stereo not shown) [Example 692], the IC50 against FGFR2 and in the experiment with SNU16 cells was 1000 to 100000 nM throughout.

As to `C=C(C)C(=O)Nc1ccc(-c2c(-c3ccc(Oc4cccc(C)n4)cc3)c3c(N)ncnc3n2CCOC)cc1` [Example 370], the IC50 against FGFR2 is less than 100 nM; in the experiment on SNU16 cells, not above 100 nM.

`C=CC(=O)N1CCC(c2c(-c3ccc(Oc4cccc(C)n4)cc3)c3c(N)ncnc3n2C)C1` (stereo not shown) [Example 645]: the IC50 against FGFR2 is less than 100 nM; in the experiment on SNU16 cells, not above 100 nM.

Regarding `C=CC(=O)N1CCC(n2ncc(-c3c(-c4ccc(Oc5cccc(C)n5)cc4)c4c(N)ncnc4n3C)c2C)CC1` [Example 637], the IC50 on FGFR2 is less than 100 nM; in the experiment with SNU16 cells, not above 100 nM.

`C=CC(=O)N1CCC(c2c(-c3ccc(S(=O)(=O)C4CC4)cc3)c3c(N)ncnc3n2C)C1` (stereo not shown) [Example 785]: the IC50 on FGFR2 was less than 100 nM; in the experiment on SNU16 cells it was not above 100 nM.

With `C=C(C)C(=O)Nc1ccc(-c2c(-c3ccc(C(=O)N4CCCC4)c(OC)c3)c3c(N)ncnc3n2C)cc1` [Example 156], the half-maximal inhibitory concentration (IC50) against FGFR2 is 250 to 1000 nM; in the experiment with SNU16 cells, 100 to 250 nM.

For `C=C(C)C(=O)Nc1ccc(-c2c(-c3ccc(Oc4nccc(C)n4)c(F)c3)c3c(N)ncnc3n2[C@@H]2CCOC2)cc1` (single isomer, unassigned) [Example 539], the IC50 against FGFR2 is less than 100 nM; in the experiment with SNU16 cells it was not above 100 nM.

With `C=C(C)C(=O)Nc1ccc(-c2c(-c3ccc(C(=O)N4CC5CC4C5)cc3F)c3c(N)ncnc3n2C)cc1` [Example 562], the IC50 on FGFR2 is 100 to 250 nM; in the experiment with SNU16 cells, not above 100 nM.

`C=C(C)C(=O)Nc1ccc(-c2c(-c3ccc(C(=O)NCC(C)(C)OC)c(F)c3)c3c(N)ncnc3n2C)cc1` [Example 416]: the IC50 is less than 100 nM on FGFR2 and not above 100 nM with SNU16 cells.

For the compound `C=CC(=O)Nc1ccc(-c2c(-c3ccc(Oc4ccc(C)c(C)n4)c(OC)c3)c3c(N)ncnc3n2C)cc1` [Example 45], the IC50 is less than 100 nM against FGFR2 and not above 100 nM in the experiment on SNU16 cells.

`C=C(C)C(=O)Nc1ccc(-c2c(-c3ccc(C(=O)NCC(F)(F)F)c(OC)c3)c3c(N)ncnc3n2C)cc1` [Example 568]: the figures for the IC50 at FGFR2 and in the experiment on SNU16 cells were less than 100 nM and not above 100 nM, respectively.

Regarding `C=C(C)C(=O)Nc1ccc(-c2c(-c3ccc(Oc4ncc(F)cn4)cn3)c3c(N)ncnc3n2C)cc1` [Example 474], the IC50 against FGFR2 was less than 100 nM; in the experiment on SNU16 cells, not above 100 nM.

As for `C/C=C(\C#N)C(=O)N1CCC(n2cc(-c3c(-c4ccc(Oc5cccc(C)n5)cc4)c4c(N)ncnc4n3C)cn2)CC1` [Example 668], the figures for the IC50 against FGFR2 and in the experiment on SNU16 cells were less than 100 nM and 1000 to 100000 nM, respectively.

As for `C=CC(=O)Nc1ccc(-c2c(-c3ccc(Oc4cccc(C)n4)c(OC)c3)c3c(N)ncnc3n2C)cc1` [Example 1], the IC50 at FGFR2 was less than 100 nM; with SNU16 cells, not above 100 nM.

`C=C(C)C(=O)Nc1ccc(-c2c(-c3ccc(C(=O)N(C)Cc4nc(C)no4)cc3)c3c(N)ncnc3n2C)c(F)c1` [Example 468]: the IC50 was less than 100 nM against FGFR2 and not above 100 nM in the experiment on SNU16 cells.

Turning to `C=CC(=O)N1CCC(c2c(-c3ccc(Oc4ccccn4)c(OC)c3)c3c(N)ncnc3n2C)C1` (stereo not shown) [Example 675], the IC50 on FGFR2 was 250 to 1000 nM; in the experiment on SNU16 cells, 1000 to 100000 nM.

Regarding `C=CC(=O)N1CCC(c2c(-c3ccc(SC4CCCC4)cc3)c3c(N)ncnc3n2C)C1` (stereo not shown) [Example 749], the IC50 against FGFR2 is less than 100 nM; with SNU16 cells, not above 100 nM.

As to `C=C(C)C(=O)Nc1ccc(-c2c(-c3ccc(C(=O)N(C)Cc4noc(C)n4)cc3)c3c(N)ncnc3n2C)cc1` [Example 375], the IC50 against FGFR2 and in the experiment with SNU16 cells was 250 to 1000 nM in each case.

As to `C=C(C)C(=O)Nc1ccc(-c2c(-c3ccc(Oc4cccc(C)n4)c(F)c3)c3c(N)ncnc3n2C)cc1` [Example 395], the half-maximal inhibitory concentration (IC50) against FGFR2 was less than 100 nM; with SNU16 cells, not above 100 nM.

With `C=CC(=O)N1CCC(c2c(-c3ccc(Oc4ccccn4)cc3)c3c(N)ncnc3n2C)C1` (stereo not shown) [Example 689], the IC50 against FGFR2 is less than 100 nM; in the experiment on SNU16 cells it was not above 100 nM.

For the compound `C=CC(=O)Nc1ccc(-c2[nH]c3ncnc(N)c3c2-c2ccc(Oc3cccc(C)n3)cc2)cc1` [Example 769], the values for the IC50 against FGFR2 and in the experiment with SNU16 cells were less than 100 nM and not above 100 nM, respectively.

As to `C=C(C)C(=O)Nc1ccc(-c2c(-c3ccc([S+]([O-])C4CC4)cc3)c3c(N)ncnc3n2C)cc1` (stereo not shown) [Example 160], the IC50 against FGFR2 and in the experiment on SNU16 cells was 250 to 1000 nM in each case.

With `Cc1cccc(Oc2ccc(-c3c(-c4cnn(C5CCN(C(=O)/C=C/CN(C)C)CC5)c4)n(C)c4ncnc(N)c34)cc2)n1` [Example 621], the IC50 against FGFR2 was less than 100 nM; with SNU16 cells, not above 100 nM.

For the compound `C=CC(=O)Nc1ccc(-c2c(-c3ccc(ON4CCCC4)cc3)c3c(N)ncnc3n2C)c(C)c1` [Example 216], the IC50 against FGFR2 is less than 100 nM; in the experiment on SNU16 cells, not above 100 nM.

Consider `C=CC(=O)Nc1ccc(-c2c(-c3ccc(Oc4ccn(C)n4)cc3)c3c(N)ncnc3n2C)cc1` [Example 276], for which the IC50 against FGFR2 was less than 100 nM; in the experiment with SNU16 cells, not above 100 nM.

`C=C(C)C(=O)Nc1ccc(-c2c(-c3ccc(Cn4ccc(C)n4)cc3)c3c(N)ncnc3n2C)cc1` [Example 274]: the IC50 at FGFR2 fell in the range of 100 to 250 nM; with SNU16 cells, 250 to 1000 nM.

Take `C=C(C)C(=O)Nc1ccc(-c2c(-c3ccc(C(=O)N4CCC[C@@H]4COC)cc3)c3c(N)ncnc3n2C)cc1` [Example 361]: the IC50 against FGFR2 and in the experiment with SNU16 cells was 250 to 1000 nM in each case.

As for `C=C(C)C(=O)N1CCC(c2c(-c3ccc(Oc4cccc(C)n4)cc3)c3c(N)ncnc3n2C)C1` (stereo not shown) [Example 691], the IC50 at FGFR2 fell in the range of 250 to 1000 nM; with SNU16 cells, 1000 to 100000 nM.

Turning to `C=CC(=O)N1CCC(n2cc(-c3c(-c4ccc(Oc5cccc(C)n5)cc4)c4c(N)ncnc4n3C)c(C)n2)CC1` [Example 632], the IC50 against FGFR2 was less than 100 nM; in the experiment on SNU16 cells, not above 100 nM.

Take `Cc1cccc(Oc2ccc(-c3c(-c4ccc(NC(=O)C(C)C)cc4)n(C)c4ncnc(N)c34)cc2)n1` [Example 70]: the IC50 on FGFR2 and in the experiment with SNU16 cells was 250 to 1000 nM each time.

In the case of `C=CC(=O)N1CCC(c2c(-c3cnn(C4CCNCC4)c3)c3c(N)ncnc3n2C)C1` (stereo not shown) [Example 742], the IC50 against FGFR2 and in the experiment on SNU16 cells was 1000 to 100000 nM throughout.

Turning to `C=CC(=O)Nc1ccc(-c2c(C3=CCC(NC(C)=O)CC3)c3c(N)ncnc3n2C)cc1` (stereo not shown) [Example 171], the IC50 is 100 to 250 nM against FGFR2 and 250 to 1000 nM in the experiment on SNU16 cells.

Take `C=CC(=O)N1CC[C@H](c2c(-c3ccc(Oc4cccc(C)n4)cc3)c3c(N)ncnc3n2C)C1` (single isomer, unassigned) [Example 712]: the IC50 on FGFR2 is less than 100 nM; in the experiment on SNU16 cells, not above 100 nM.

`C=C(C)C(=O)Nc1ccc(-c2c(-c3ccc(Oc4nccc(C)n4)cc3)c3c(N)ncnc3n2C)c(F)c1` [Example 426]: the IC50 against FGFR2 was less than 100 nM; in the experiment on SNU16 cells it was not above 100 nM.

Take `C=C(C)C(=O)Nc1ccc(-c2c(-c3ccc(Oc4nccc(C)n4)c(F)c3)c3c(N)ncnc3n2C(C)C)cc1` [Example 499]: the IC50 against FGFR2 was less than 100 nM; in the experiment on SNU16 cells, not above 100 nM.

For the compound `C=C(C)C(=O)Nc1ccc(-c2c(-c3ccc(Oc4cccc(N)n4)cc3)c3c(N)ncnc3n2C)cc1` [Example 379], the IC50 at FGFR2 is less than 100 nM; in the experiment with SNU16 cells, not above 100 nM.

`C=CC(=O)N1CCC(c2c(-c3ccc(Oc4ncccn4)cc3)c3c(N)ncnc3n2C2CC(O)C2)C1` (stereo not shown) [Example 714]: the IC50 against FGFR2 is less than 100 nM; in the experiment on SNU16 cells, not above 100 nM.

For the compound `C=CC(=O)N1CCC(c2c(-c3ccc(Oc4ccc(Cl)cn4)cc3)c3c(N)ncnc3n2C)C1` (stereo not shown) [Example 706], the IC50 against FGFR2 is less than 100 nM; in the experiment with SNU16 cells, not above 100 nM.

With `C/C(=C\CN(C)C)C(=O)N1CC(n2cc(-c3c(-c4ccc(Oc5cccc(C)n5)cc4)c4c(N)ncnc4n3C)cn2)C1` [Example 671], the IC50 against FGFR2 lay in the range of 250 to 1000 nM; in the experiment on SNU16 cells, 1000 to 100000 nM.

With `C=C(C)C(=O)Nc1ccc(-c2c(-c3ccc(S(=O)(=O)CC4CCCC4)cc3)c3c(N)ncnc3n2C)cc1` [Example 314], the IC50 at FGFR2 and in the experiment with SNU16 cells was 250 to 1000 nM throughout.

For the compound `C=CC(=O)N1CCC(c2c(-c3ccc(Oc4ccccn4)cc3)c3c(N)ncnc3n2C)CC1` [Example 701], the IC50 on FGFR2 was less than 100 nM; in the experiment on SNU16 cells, not above 100 nM.

On to `C=CC(=O)N1CCC(c2c(-c3ccc(Oc4cccc(C)n4)cc3)c3c(N)ncnc3n2C)CC1` [Example 647], for which the IC50 against FGFR2 is less than 100 nM; with SNU16 cells, not above 100 nM.

In the case of `C=C(C)C(=O)Nc1ccc(-c2[nH]c3ncnc(N)c3c2-c2ccc(C(=O)N3CCCC3)cc2)cc1` [Example 796], the IC50 is less than 100 nM at FGFR2 and not above 100 nM with SNU16 cells.

For orientation: IC50 means the concentration that inhibits the measured activity by half. Read a low IC50 as higher potency.
